From ChEMBL document CHEMBL3885881, “DrugMatrix”

Species on record: Rattus norvegicus
Experiment: DrugMatrix - Regimen: Daily Repeat
Type: toxicity, organism-based, Sprague-Dawley
Design: regimen Daily Repeat, gender Male, age 6-8 weeks
Settings: in vivo, po, route oral GAVAGE, vehicle 100 % WATER; for ABSOLUTE BASOPHIL / ABSOLUTE EOSINOPHIL / ABSOLUTE LYMPHOCYTE / ABSOLUTE MONOCYTE / ABSOLUTE SEGMENTED NEUTROPHIL / BASOPHIL / EOSINOPHIL / ERYTHROCYTE COUNT / HEMATOCRIT / HEMOGLOBIN / LEUKOCYTE COUNT / LYMPHOCYTE / MEAN CORPUSCULAR HEMOGLOBIN / MEAN CORPUSCULAR HEMOGLOBIN CONCENTRATION / MEAN CORPUSCULAR VOLUME / MONOCYTE / NEUTROPHIL / NUCLEATED RED BLOOD CELLS / PLATELET COUNT: tissue Blood; for ALANINE AMINOTRANSFERASE / ALBUMIN / ALKALINE PHOSPHATASE / ASPARTATE AMINOTRANSFERASE / BLOOD UREA NITROGEN / CARBON DIOXIDE / CHLORIDE / CHOLESTEROL / CREATINE PHOSPHOKINASE / CREATININE / GLUCOSE / LACTATE DEHYDROGENASE / LIPASE / PHOSPHORUS / POTASSIUM / SODIUM / TOTAL BILIRUBIN / TOTAL PROTEIN / URIC ACID: tissue Plasma
[1] = 0 mg/kg, 72 h, dose level Control, time 3 day
[2] = 0 mg/kg, 120 h, dose level Control, time 5 day
[3] = 20 mg/kg, 72 h, dose level Low, time 3 day

What does the source list for CN(C)CCC=C1c2ccccc2CCc2ccccc21 [AMITRIPTYLINE]?
ABSOLUTE BASOPHIL [1]: 0 CELLS/uL; ABSOLUTE EOSINOPHIL [1]: 58.83 CELLS/uL; ABSOLUTE LYMPHOCYTE [1]: 11823.5 CELLS/uL; ABSOLUTE MONOCYTE [1]: 169 CELLS/uL; ABSOLUTE SEGMENTED NEUTROPHIL [1]: 815.33 CELLS/uL; BASOPHIL [1]: 0%; EOSINOPHIL [1]: 0.5%; ERYTHROCYTE COUNT [1]: 5.52 x10E6/uL; HEMATOCRIT [1]: 35.77%; HEMOGLOBIN [1]: 14.28 G/DL; LEUKOCYTE COUNT [1]: 12.87 x10E3/uL; LYMPHOCYTE [1]: 91.67%; MEAN CORPUSCULAR HEMOGLOBIN [1]: 25.92 pg; MEAN CORPUSCULAR HEMOGLOBIN CONCENTRATION [1]: 39.95 G/DL; MEAN CORPUSCULAR VOLUME [1]: 64.85 fL; MONOCYTE [1]: 1.33%; NEUTROPHIL [1]: 6.5%; NUCLEATED RED BLOOD CELLS [1]: 0 /100WBC; PLATELET COUNT [1]: 1246.17 x10E3/uL; ALANINE AMINOTRANSFERASE [1]: 66 u/L; ALBUMIN [1]: 4.25 G/DL; ALKALINE PHOSPHATASE [1]: 416 u/L; ASPARTATE AMINOTRANSFERASE [1]: 106.17 u/L; BLOOD UREA NITROGEN [1]: 12.67 mg/dL; CARBON DIOXIDE [1]: 31.83 mmol/L; CHLORIDE [1]: 102.5 MEQ/L; CHOLESTEROL [1]: 69 mg/dL; CREATINE PHOSPHOKINASE [1]: 601.83 u/L; CREATININE [1]: 0.18 mg/dL; GLUCOSE [1]: 154.5 mg/dL; LACTATE DEHYDROGENASE [1]: 301.83 u/L; LIPASE [1]: 11.17 u/L; PHOSPHORUS [1]: 12.08 mg/dL; POTASSIUM [1]: 6.12 MEQ/L; SODIUM [1]: 145.2 MEQ/L; TOTAL BILIRUBIN [1]: 0.17 mg/dL; TOTAL PROTEIN [1]: 6.1 G/DL; URIC ACID [1]: 1.57 mg/dL; ABSOLUTE BASOPHIL [2]: 0 CELLS/uL; ABSOLUTE EOSINOPHIL [2]: 19.33 CELLS/uL; ABSOLUTE LYMPHOCYTE [2]: 12577.83 CELLS/uL; ABSOLUTE MONOCYTE [2]: 106.33 CELLS/uL; ABSOLUTE SEGMENTED NEUTROPHIL [2]: 896.5 CELLS/uL; BASOPHIL [2]: 0%; EOSINOPHIL [2]: 0.17%; ERYTHROCYTE COUNT [2]: 5.84 x10E6/uL; HEMATOCRIT [2]: 36.88%; HEMOGLOBIN [2]: 14.48 G/DL; LEUKOCYTE COUNT [2]: 13.6 x10E3/uL; LYMPHOCYTE [2]: 92.17%; MEAN CORPUSCULAR HEMOGLOBIN [2]: 24.85 pg; MEAN CORPUSCULAR HEMOGLOBIN CONCENTRATION [2]: 39.3 G/DL; MEAN CORPUSCULAR VOLUME [2]: 63.23 fL; MONOCYTE [2]: 0.83%; NEUTROPHIL [2]: 6.83%; NUCLEATED RED BLOOD CELLS [2]: 0 /100WBC; PLATELET COUNT [2]: 1223.5 x10E3/uL; ALANINE AMINOTRANSFERASE [2]: 55.33 u/L; ALBUMIN [2]: 4.08 G/DL; ALKALINE PHOSPHATASE [2]: 355.5 u/L; ASPARTATE AMINOTRANSFERASE [2]: 87.67 u/L; BLOOD UREA NITROGEN [2]: 15.33 mg/dL; CARBON DIOXIDE [2]: 33.83 mmol/L; CHLORIDE [2]: 99.67 MEQ/L; CHOLESTEROL [2]: 72.17 mg/dL; CREATINE PHOSPHOKINASE [2]: 268.33 u/L; CREATININE [2]: 0.15 mg/dL; GLUCOSE [2]: 152.5 mg/dL; LACTATE DEHYDROGENASE [2]: 212.67 u/L; LIPASE [2]: 10.83 u/L; PHOSPHORUS [2]: 11.65 mg/dL; POTASSIUM [2]: 6.73 MEQ/L; SODIUM [2]: 142.43 MEQ/L; TOTAL BILIRUBIN [2]: 0.23 mg/dL; TOTAL PROTEIN [2]: 6.07 G/DL; URIC ACID [2]: 1.7 mg/dL; ABSOLUTE BASOPHIL [3]: 0 CELLS/uL; ABSOLUTE EOSINOPHIL [3]: 43.67 CELLS/uL; ABSOLUTE LYMPHOCYTE [3]: 12245.67 CELLS/uL; ABSOLUTE MONOCYTE [3]: 111.33 CELLS/uL; ABSOLUTE SEGMENTED NEUTROPHIL [3]: 1432.67 CELLS/uL; BASOPHIL [3]: 0%; EOSINOPHIL [3]: 0.33%; ERYTHROCYTE COUNT [3]: 5.6 x10E6/uL; HEMATOCRIT [3]: 36.3%; HEMOGLOBIN [3]: 14.5 G/DL; LEUKOCYTE COUNT [3]: 13.83 x10E3/uL; LYMPHOCYTE [3]: 88.33%; MEAN CORPUSCULAR HEMOGLOBIN [3]: 25.93 pg; MEAN CORPUSCULAR HEMOGLOBIN CONCENTRATION [3]: 39.97 G/DL; MEAN CORPUSCULAR VOLUME [3]: 64.87 fL; MONOCYTE [3]: 0.67%; NEUTROPHIL [3]: 10.67%; NUCLEATED RED BLOOD CELLS [3]: 0 /100WBC; PLATELET COUNT [3]: 1222 x10E3/uL; ALANINE AMINOTRANSFERASE [3]: 53 u/L; ALBUMIN [3]: 4.33 G/DL; ALKALINE PHOSPHATASE [3]: 377.33 u/L; ASPARTATE AMINOTRANSFERASE [3]: 92 u/L; BLOOD UREA NITROGEN [3]: 14.67 mg/dL; CARBON DIOXIDE [3]: 31.33 mmol/L; CHLORIDE [3]: 103 MEQ/L; CHOLESTEROL [3]: 67.33 mg/dL; CREATINE PHOSPHOKINASE [3]: 466 u/L; CREATININE [3]: 0.22 mg/dL; GLUCOSE [3]: 137.33 mg/dL; LACTATE DEHYDROGENASE [3]: 318.67 u/L; LIPASE [3]: 12.67 u/L; PHOSPHORUS [3]: 11.77 mg/dL; POTASSIUM [3]: 6.47 MEQ/L; SODIUM [3]: 145.83 MEQ/L; TOTAL BILIRUBIN [3]: 0.2 mg/dL; TOTAL PROTEIN [3]: 6.03 G/DL; URIC ACID [3]: 1.5 mg/dL
